# Patent publication US20250268474A1, “Systems and Methods for Detecting Fibrosis” (3HELIX, INC., priority 2021, published 2025)
# Where no end group is shown, it is not given here. [ ]: non-standard residue; d: D form. Pro(cis-4-F) = O=C(O)[C@@H]1C[C@H](F)CN1; Hyp = O=C(O)[C@@H]1C[C@@H](O)CN1
# System: damaged/denatured collagen
# Experiment: LCHP in vivo imaging (fundus / ICG angiography) in CNV mice
# Settings: spontaneous CNV (JR5558), FIG. 6A; 1 nmol per animal, tail vein
substance,measurement,value
sulfo-Cy7.5-GGG-OfGGOfGfGfOfOGOfGOOfGGOOff ({sulfo‑Cy7.5}-GGG[Hyp][Pro(cis-4-F)]GG[Hyp][Pro(cis-4-F)]G[Pro(cis-4-F)]G[Pro(cis-4-F)][Hyp][Pro(cis-4-F)][Hyp]G[Hyp][Pro(cis-4-F)]G[Hyp][Hyp][Pro(cis-4-F)]GG[Hyp][Hyp][Pro(cis-4-F)][Pro(cis-4-F)]; not fully specified; printed as sulfo-Cy7.5-GGG-OfGGOfGfGfOfOGOfGOOfGGOOff) [scrambled sCy7.5-CHP],"signal in IR, FA and ICGA imaging",no significant signal was detected
